# Results reported in patent publication US9370503B1, “Compounds for treating ocular diseases” (priority 2015, dated 2016).
# What was measured:
# [1] = test system: laser induced AMD rat model; assay: Laser induced AMD rat model, CNV area by fluorescein angiography; type: in vivo; conditions: (II) instillation, laser rupture of Bruch's membrane, vs control about 2.5 mm^2
# Experimental: The rats were randomly divided into 2 groups. Control group was instilled with vehicle (30% HP-β-CD solution). […] Both eyes of all rats were instilled with 1 drop of ophthalmic solutions 3 times a day for 1 week before and 4 weeks after laser induced injury. The rats were anesthetized for all procedures with intramuscular injection of ketamine (35 mg/kg) and xylazine (5 mg/kg). The pupils were dilated with one drop each of 10 mg/ml atropine, and 25 mg/ml phenylephrine. The fundus was visualized by the VOLK super Pupil XL Biomicroscopy Lens (Keeler Instruments Inc., Broomall, Pa., USA). A double frequency Nd:YAG laser (Laserex LP3532; Lumenis Inc., Salt Lake City, Utah, USA) was used at 532 nm wavelength. Laser parameters were used by 100 μm spot size, 0.15-second exposure and 150-200 mw powers. Five laser spots were made to the ocular fundus at approximately equal distances around the optic nerves. […] Only laser spots with bubble formation were included in the study. Lesions with subretinal hemorrhage were excluded. Fluorescein angiography (FA) was performed after 2 and 4 weeks laser treatment with a digital fundus camera (TRC-50EX; TOPCON, Tokyo, Japan). 100 mg/ml fluorescein sodium salt was injected (0.5 ml/kg) through hypoglossal vein. Both early (under 2 minutes) and late (over 7 minutes) fluorescein phases were captured. […]
# HUVECs = assay: NaN3-induced injury in HUVECs (MTT); type: cell-based, human; conditions: 72 hours
# Experimental: (§1) ARPE-19 cells were grown in DMEM/F12 medium supplemented with 10% FBS, 100 units/ml penicillin G, and 100 μg/ml streptomycin sulfate. HUVECs were grown in vascular cell basal medium supplemented with endothelial cell growth kit. Cells were incubated in a humidified incubator at 37° C. under 5% CO2 and 95% air.
# MTT assay was used to measure the viability of ARPE-19 cells and HUVECs. 2×10^5 ARPE-19 cells or 5×10^4 HUVECs were seeded in 96-well plates (100 μl/well) and allowed to grow overnight. Negative control was prepared by adding 100 μl medium without cells. The cells were then treated with fresh medium with a compound of Formula (II) (“(II)”) (0.03, 0.1, 0.3, 1, 3 and 10 μg/ml) and/or oxidants (NaIO3, H2O2, t-BHP and NaN3) for 12, 24, or 72 hours (200 μl/well). The vehicle control group was treated with vehicle. 20 μl MTT (5 mg/ml) was added to wells, and incubated for another 4 h. After incubation, the medium was discarded and 100 μl DMSO was added to solubilize formazan produced from MTT by the viable cells. Absorbance was measured at 570 nm using a microplate reader (Bio-Rad Laboratories, Inc., CA). Cells viability was calculated according to the following formula: Viability of cells (%)=(absorbance in tested sample−absorbance in negative control)/(absorbance in vehicle control−absorbance in negative control)×100%.
# [2] = test system: Ocular Hypertensive Rabbit; assay: Ocular blood flow in ocular hypertensive rabbit (colored microspheres); type: in vivo; conditions: 1% topical instillation, 30 minutes after drug instillation
# Experimental: 0.5% alcaine was purchased commercially. A 20% sterilized hypertonic saline solution was prepared in the laboratory. Colored microspheres were purchased from E-Z Trac (Los Angeles, Calif.). The colored microspheres were diluted with saline containing 0.01% (v/v) of Tween 80 to prevent the microspheres from sticking together. Two million microspheres in 0.4 ml were injected at each time point.
# Female New Zealand white rabbits weighing 2.-3.0 kg, were purchased commercially. Animal care and treatment were followed by the institutional guidelines.
# Rabbits were anesthetized with 35 mg/kg ketamine and 5 mg/kg xylazine by intramuscular injection. Half of the initial dose was given every one hour thereafter. The left ventricle was cannulated through the right carotid artery for injection of colored microspheres and the femoral artery was cannulated for collection of blood samples. The left eye was treated with one drop of proparacaine hydrochloride ophthalmic solution (Bausch & Lomb, Inc., Tampa, Fla., USA). The needle was inserted directly into the anterior chamber of the left eye, which was connected to the 40 mmHg saline manometer. The ocular hypertensive model reduced the ocular blood flow to approximately one third of the normal valued. 50 μl of 10 g/l flavone or vehicle (30% HP-β-CD solution) was instilled topically to the left eye 30 minutes after the ocular hypertensive model was built. The ocular blood flow was measured by colored microspheres at 0, 30, 60 and 120 minutes after treatment with the compounds or vehicle. At each time point, 2 million microspheres were injected as a reference, and blood samples were taken from the femoral artery for exactly one minute following injection of the microspheres. The blood sample was collected in a heparinized tube and the volume was recorded. The rabbits were euthanized with an injection of 100 mg/kg pentobarbital sodium after the last blood sampling. The left eyes were enucleated and dissected into the iris, ciliary body, retina and choroid. All the tissues were weighed.
# The details of sample processing and microsphere counting were provided by E-Z Trac (Los Angeles, Calif., USA). In brief, the blood hemolysis reagent was added to the microfuge tubes with the blood sample, then vortexed and centrifuged for 30 minutes at 6000 rpm. The supernatant was removed, and then tissue/blood digest reagents I and II were added. The tubes were capped, vortexed, and centrifuged for 30 minutes. […] The number of microspheres was counted by the hemocytometer under the microscope. […] The protocol thereafter was the same as that used to process the blood samples, and the microspheres were counted.
# The blood flow of each tissue at a certain time point was calculated according to the following formula: Qm=(Cm×Qr)/Cr. […]
# ARPE-19 cells = assay: Hypoxia-induced damage in ARPE-19 cells (MTT); type: cell-based, human; conditions: hypoxia 1% O2, 72 h
# Experimental: as §1
# MTT assay was used to measure the viability of ARPE-19 cells and HUVECs. 2×10^5 ARPE-19 cells or 5×10^4 HUVECs were seeded in 96-well plates (100 μl/well) and allowed to grow overnight. Negative control was prepared by adding 100 μl medium without cells. The cells were then treated with fresh medium with a compound of Formula (II) (“(II)”) (0.03, 0.1, 0.3, 1, 3 and 10 μg/ml) and/or oxidants (NaIO3, H2O2, t-BHP and NaN3) for 12, 24, or 72 hours (200 μl/well). The vehicle control group was treated with vehicle. 20 μl MTT (5 mg/ml) was added to wells, and incubated for another 4 h. After incubation, the medium was discarded and 100 μl DMSO was added to solubilize formazan produced from MTT by the viable cells. Absorbance was measured at 570 nm using a microplate reader (Bio-Rad Laboratories, Inc., CA). Cells viability was calculated according to the following formula: Viability of cells (%)=(absorbance in tested sample−absorbance in negative control)/(absorbance in vehicle control−absorbance in negative control)×100%. […]
smiles,measurement,setting,value
CC(C)=CCC/C(C)=C/Cc1c([C@@H]2CC(=O)c3c(cc(O)c(CC=C(C)C)c3O)O2)ccc(O)c1O [Formula (II)],area of CNV formation,[1],significantly suppressed
same,enhancement of NaN3-induced injury in HUVECs,"HUVECs; 0.3 mM NaN3, 3 μg/ml compound",75%
same,enhancement of NaN3-induced injury in HUVECs,"HUVECs; 0.3 mM NaN3, 10 μg/ml compound",95%
same,enhancement of NaN3-induced injury in HUVECs,"HUVECs; 1 mM NaN3, 10 μg/ml compound",75%
same,enhancement of NaN3-induced injury in HUVECs,"HUVECs; 3 mM NaN3, 3 μg/ml compound",44%
same,enhancement of NaN3-induced injury in HUVECs,"HUVECs; 3 mM NaN3, 10 μg/ml compound",71%
same,blood flow in choroid,[2],significantly increased
same,blood flow in iris,[2],significantly increased
same,effect on viability of ARPE-19 cells in hypoxic condition,ARPE-19 cells; 0.03 μg/ml to 3 μg/ml,no effect
same,reversal of injury induced by hypoxia in ARPE-19 cells,ARPE-19 cells; 10 μg/ml,24%
